Laboratory results taken from PubChem BioAssay (NCI).
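All cell lines were grown in 96-well plates and treated with compound for 48 hours. GI50 is the concentration that inhibits growth by half. At the TGI there is no net growth.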

Assays:
Assay in all cases: NCI-60 cell line screen, 48 h
SK-MEL-28 melanoma = system: SK-MEL-28 melanoma
SK-MEL-5 melanoma = system: SK-MEL-5 melanoma
UACC-257 melanoma = system: UACC-257 melanoma
NCI/ADR-RES ovarian = system: NCI/ADR-RES ovarian
OVCAR-8 ovarian = system: OVCAR-8 ovarian
SF-539 CNS = system: SF-539 CNS
BT-549 breast = system: BT-549 breast
UO-31 renal = system: UO-31 renal
A498 renal = system: A498 renal
RPMI-8226 leukemia = system: RPMI-8226 leukemia
MDA-MB-435 = system: MDA-MB-435
OVCAR-4 ovarian = system: OVCAR-4 ovarian
SF-268 CNS = system: SF-268 CNS
EKVX NSCLC = system: EKVX NSCLC
COLO 205 colon = system: COLO 205 colon
SF-295 CNS = system: SF-295 CNS
CCRF-CEM leukemia = system: CCRF-CEM leukemia
HS 578T breast = system: HS 578T breast
OVCAR-5 ovarian = system: OVCAR-5 ovarian
ACHN renal = system: ACHN renal
CAKI-1 renal = system: CAKI-1 renal
OVCAR-3 ovarian = system: OVCAR-3 ovarian
HOP-92 NSCLC = system: HOP-92 NSCLC
SK-OV-3 ovarian = system: SK-OV-3 ovarian
786-0 renal = system: 786-0 renal
M14 melanoma = system: M14 melanoma
LOX IMVI melanoma = system: LOX IMVI melanoma
NCI-H23 lung = system: NCI-H23 lung
KM12 colon = system: KM12 colon
SNB-19 CNS = system: SNB-19 CNS
HOP-62 NSCLC = system: HOP-62 NSCLC
HCT-15 colon = system: HCT-15 colon
TK-10 renal = system: TK-10 renal
SN12C renal = system: SN12C renal
DU-145 prostate = system: DU-145 prostate
A549 NSCLC = system: A549 NSCLC
RXF 393 renal = system: RXF 393 renal
MDA-MB-231 breast = system: MDA-MB-231 breast
IGROV1 ovarian = system: IGROV1 ovarian
MOLT-4 leukemia = system: MOLT-4 leukemia
PC-3 prostate = system: PC-3 prostate
NCI-H522 lung = system: NCI-H522 lung
SK-MEL-2 melanoma = system: SK-MEL-2 melanoma
MCF7 breast = system: MCF7 breast
MALME-3M melanoma = system: MALME-3M melanoma
UACC-62 melanoma = system: UACC-62 melanoma
HT29 colon = system: HT29 colon
SNB-75 CNS = system: SNB-75 CNS
HCT-116 colon = system: HCT-116 colon
K-562 leukemia = system: K-562 leukemia
U251 CNS = system: U251 CNS
HCC-2998 colon = system: HCC-2998 colon
SW-620 colon = system: SW-620 colon
NCI-H460 lung = system: NCI-H460 lung
NCI-H226 lung = system: NCI-H226 lung
T-47D breast = system: T-47D breast

## O=C(c1ccccc1)c1c(NCC(O)CN2CCOCC2)n(Cc2ccccc2)c(=O)n(Cc2ccccc2)c1=O (stereo unspecified)
SK-MEL-28 melanoma
  GI50: > 64.1 µM
  TGI: > 100 µM
SK-MEL-5 melanoma
  GI50: 33.4 µM
  TGI: > 100 µM
UACC-257 melanoma
  GI50: 55.8 µM
  TGI: > 100 µM
NCI/ADR-RES ovarian
  GI50: 2.17 µM
  TGI: > 27.4 µM
OVCAR-8 ovarian
  GI50: 48.9 µM
  TGI: > 100 µM
SF-539 CNS
  GI50: > 68 µM
  TGI: > 100 µM
BT-549 breast
  GI50: 29.3 µM
  TGI: > 100 µM
UO-31 renal
  GI50: 34.5 µM
  TGI: > 100 µM
A498 renal
  GI50: 27.5 µM
  TGI: > 88.8 µM
RPMI-8226 leukemia
  GI50: 24 µM
  TGI: > 92.4 µM
MDA-MB-435
  GI50: 35.2 µM
  TGI: > 100 µM
OVCAR-4 ovarian
  GI50: > 45.4 µM
  TGI: > 95.3 µM
SF-268 CNS
  GI50: > 79.8 µM
  TGI: > 100 µM
EKVX NSCLC
  GI50: > 48.6 µM
  TGI: > 90.8 µM
COLO 205 colon
  GI50: 7.61 µM
  TGI: > 39.1 µM
SF-295 CNS
  GI50: 36.2 µM
  TGI: > 100 µM
CCRF-CEM leukemia
  GI50: 41.3 µM
  TGI: > 100 µM
HS 578T breast
  GI50: 55 µM
  TGI: > 100 µM
OVCAR-5 ovarian
  GI50: 5.53 µM
  TGI: > 78.7 µM
ACHN renal
  GI50: 40.5 µM
  TGI: > 100 µM
CAKI-1 renal
  GI50: 32.5 µM
  TGI: > 100 µM
OVCAR-3 ovarian
  GI50: 27.6 µM
  TGI: > 77.3 µM
HOP-92 NSCLC
  GI50: 17.9 µM
  TGI: 70.8 µM
SK-OV-3 ovarian
  GI50: > 29.9 µM
  TGI: > 70.1 µM
786-0 renal
  GI50: 54.1 µM
  TGI: > 100 µM
M14 melanoma
  GI50: 38.9 µM
  TGI: > 100 µM
LOX IMVI melanoma
  GI50: 38.6 µM
  TGI: > 100 µM
NCI-H23 lung
  GI50: 1.19 µM
KM12 colon
  GI50: 40.4 µM
  TGI: > 100 µM
SNB-19 CNS
  GI50: 19.1 µM
  TGI: > 84.7 µM
HOP-62 NSCLC
  GI50: 96.9 µM
  TGI: > 100 µM
HCT-15 colon
  GI50: 34.4 µM
  TGI: > 100 µM
TK-10 renal
  GI50: 30.2 µM
  TGI: > 100 µM
SN12C renal
  GI50: 46 µM
  TGI: > 100 µM
DU-145 prostate
  GI50: 35.2 µM
  TGI: > 77.5 µM
A549 NSCLC
  GI50: 35.7 µM
  TGI: > 100 µM
RXF 393 renal
  GI50: 25.3 µM
  TGI: > 94 µM
MDA-MB-231 breast
  GI50: 28.8 µM
  TGI: > 100 µM
IGROV1 ovarian
  GI50: 38.5 µM
  TGI: > 100 µM
MOLT-4 leukemia
  GI50: 32.4 µM
  TGI: > 95.5 µM
PC-3 prostate
  GI50: 39.4 µM
  TGI: > 100 µM
NCI-H522 lung
  GI50: 38.9 µM
  TGI: > 100 µM
SK-MEL-2 melanoma
  GI50: > 66.4 µM
  TGI: > 100 µM
MCF7 breast
  GI50: 48.2 µM
  TGI: > 100 µM
MALME-3M melanoma
  GI50: 48.8 µM
  TGI: > 100 µM
UACC-62 melanoma
  GI50: 36.7 µM
  TGI: > 100 µM
HT29 colon
  GI50: 26.4 µM
  TGI: > 62.9 µM
SNB-75 CNS
  GI50: > 36.8 µM
  TGI: > 81.7 µM
HCT-116 colon
  GI50: 34.1 µM
  TGI: > 100 µM
K-562 leukemia
  GI50: 42.2 µM
  TGI: > 100 µM
U251 CNS
  GI50: 29.2 µM
  TGI: > 100 µM
HCC-2998 colon
  GI50: 1.26 µM
  TGI: 4.86 µM
SW-620 colon
  GI50: 52.9 µM
  TGI: > 100 µM
NCI-H460 lung
  GI50: 42.9 µM
  TGI: > 100 µM
NCI-H226 lung
  GI50: 31.6 µM
  TGI: > 95.1 µM
T-47D breast
  GI50: 1.69 µM
  TGI: > 43.3 µM
